# Source: patent US20050222408A1, “Heterocyclic amides with anti-tuberculosis activity” (priority 2003, published 2005)
# Entries after “also recorded” stand apart in the source; their conditions may differ. Like-named read-outs stand apart in the source and are kept apart here.
# What was measured:
# [1] = test system: M. tuberculosis; type: in vivo, mice; conditions: for viable M. tuberculosis, Spleen ± SEM: untreated controls 6.7 ± 0.16; for viable M. tuberculosis, Lungs ± SEM: untreated controls 8.0 ± 0.17
# [2] = test system: Vero cells; assay: Cytotoxicity, alamar blue assay against Vero cells; type: cell-based; conditions: for ToxIC50: unit not given; for IC50: Chlorocebus sabaeus, read-out: ToxIC50; for selectivity index (SI): summary b276
# [3] = Maximum Tolerated Dose (MTD), single oral dose in mice; conditions: escalating dose 100, 300 and 500 mg/kg by oral gavage
# Method: An assay for Maximum Tolerated Dose (MTD) was also utilized. […] Three different concentrations are tested, generally at 100, 300 and 500 mg/kg. The latter dose is about twice to five times the dose used for efficacy testing of the compound in mice. After 7 days of observation the mice are sacrificed and the organs are studied for any adverse effects. In case of abnormalities the organs are fixed in formalin and given for extensive pathology analysis.
# Maximum tolerated dosing was performed on these selected compounds. An escalating dose of drug (100, 300 and 500 mg/kg) was given to mice by oral gavage.
# [4] = test system: M. tuberculosis H37Ra; assay: MIC against M. tuberculosis H37Ra, micro broth dilution in microtiter plates; conditions: M. tuberculosis H37Ra; for TB MIC: Table 1; for TB MIC / MIC: 7 days at 37° C., MIC90; for MIC: Mycobacterium tuberculosis, H37RA, 168 h, read-out: TB MIC, Table 1
# [5] = target: UDP-galactose mutase (Glf) (Mycobacterium tuberculosis, UniProt P9WIQ1); assay: Microtitre plate based screen of Glf (enzymatic inhibition); type: biochemical
# UDP-galactose mutase (Glf), sequence (P9WIQ1 whole entry): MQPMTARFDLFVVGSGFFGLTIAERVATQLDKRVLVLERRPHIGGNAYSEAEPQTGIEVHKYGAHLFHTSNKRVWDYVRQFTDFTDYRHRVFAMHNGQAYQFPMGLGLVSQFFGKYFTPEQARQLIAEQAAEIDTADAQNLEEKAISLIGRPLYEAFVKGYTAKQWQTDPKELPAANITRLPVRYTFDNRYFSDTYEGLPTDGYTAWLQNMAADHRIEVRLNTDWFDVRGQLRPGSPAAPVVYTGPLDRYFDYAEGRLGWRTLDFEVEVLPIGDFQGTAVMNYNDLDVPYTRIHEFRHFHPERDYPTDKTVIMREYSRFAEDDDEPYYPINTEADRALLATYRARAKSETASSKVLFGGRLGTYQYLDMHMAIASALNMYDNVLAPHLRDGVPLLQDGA
# [6] = Table 1, Vero cells, alamar blue
structure (smiles),measurement,setting,value
"Cc1ncc([N+](=O)[O-])n1CCO [Metronidazole, reference compound]","viable M. tuberculosis, Spleen ± SEM",[1]; 150 mg/kg,6.9 ± 0.04
same,"viable M. tuberculosis, Lungs ± SEM",[1]; 150 mg/kg,8.5 ± 0.18
"O=C(Nc1cccc(F)c1)c1ccc([N+](=O)[O-])o1 [Compound 12, 5-Nitro-furan-2-carboxylic acid(3-fluoro-phenyl)-amide]",ToxIC50,[2]; [6],9.29
same,"Maximum tolerated dosing, effect observed",[3],no effect at the maximum dose
same,"viable M. tuberculosis, Spleen ± SEM",[1]; 300 mg/kg,7.0 ± 0.11
same,"viable M. tuberculosis, Lungs ± SEM",[1]; 300 mg/kg,8.4 ± 0.24
same,TB MIC,[4],0.8 µg/mL
"COc1cccc(NC(=O)c2ccc([N+](=O)[O-])o2)c1 [Compound 13, 5-Nitro-furan-2-carboxylic acid(3-methoxy-phenyl)-amide]",ToxIC50,[2]; [6],18.63
same,"Maximum tolerated dosing, effect observed",[3],some pathology at 500 mg/kg
same,"viable M. tuberculosis, Spleen ± SEM",[1]; 150 mg/kg,7.2 ± 0.07
same,"viable M. tuberculosis, Lungs ± SEM",[1]; 150 mg/kg,8.0 ± 0.3
same,TB MIC,[4],0.8 µg/mL
same,Glf inhibition,[5],best inhibitors of Glf
"O=C(Nc1cccc(Cl)c1)c1ccc([N+](=O)[O-])o1 [Compound 10, 5-Nitro-furan-2-carboxylic acid(3-chloro-phenyl)-amide]",ToxIC50,[2]; [6],6.86
same,"Maximum tolerated dosing, effect observed",[3],no effect at the maximum dose
same,"viable M. tuberculosis, Spleen ± SEM",[1]; 300 mg/kg,7.3 ± 0.12
same,"viable M. tuberculosis, Lungs ± SEM",[1]; 300 mg/kg,8.3 ± 0.21
same,Glf inhibition,[5],best inhibitors of Glf
"COc1ccc(CNC(=O)c2ccc([N+](=O)[O-])o2)cc1OC [Compound 23, 5-Nitro-furan-2-carboxylic acid 3,4-dimethoxy-benzylamide]",IC50,[2]; Vero,18.2 µg/mL
same,selectivity index (SI),[2],90.9
same,"Maximum tolerated dosing, effect observed",[3],no effect at the maximum dose
same,"viable M. tuberculosis, Spleen ± SEM",[1]; 300 mg/kg,6.0 ± 0.19
same,"viable M. tuberculosis, Lungs ± SEM",[1]; 300 mg/kg,6.5 ± 0.25
same,oral activity against M. tuberculosis in the mouse infection model,[1]; oral,significant oral activity
same,anti-tuberculosis MIC activity,[4],as active as ethambutol and streptomycin
"NNC(=O)c1ccncc1 [Isoniazid, reference compound]","viable M. tuberculosis, Spleen ± SEM",[1]; 25 mg/kg,3.2 ± 0.21
same,"viable M. tuberculosis, Lungs ± SEM",[1]; 25 mg/kg,5.5 ± 0.21
"COc1ccc(NC(=O)c2ccc([N+](=O)[O-])o2)cc1 [Compound 14, 5-Nitro-furan-2-carboxylic acid(4-methoxy-phenyl)-amide]",ToxIC50,[2]; [6],21.44
same,TB MIC,[4],0.4 µg/mL
"COc1cccc(NC(=O)c2ccc(Br)o2)c1 [Compound 33, 5-Bromo-furan-2-carboxylic acid(3-methoxy-phenyl)-amide]",IC50,"[2]; Table 1, Vero cells, alamar blue, unit inferred",61.2 µg/mL
same,MIC,[4],100 µg/mL
"COc1ccc(CCNC(=O)c2ccc([N+](=O)[O-])o2)cc1 [Compound 28, 5-Nitro-furan-2-carboxylic acid [2-(4-methoxy-phenyl)-ethyl]-amide]",IC50,[2]; Vero,20.4 µg/mL
same,MIC,[4],0.8 µg/mL
"O=C(NCc1ccc(N2CCN(Cc3ccccc3)CC2)cc1)c1ccc([N+](=O)[O-])o1 [Compound 66, 5-Nitro-furan-2-carboxylic acid 4-(4-benzyl-piperazin-1-yl)-benzylamide]",selectivity index (SI),[2],1597
same,anti-tuberculosis MIC activity,[4],extremely potent; also recorded: more active than isoniazid
"CC(NC(=O)c1ccc([N+](=O)[O-])o1)c1ccccc1 (stereo not shown) [Compound 30, 5-Nitro-furan-2-carboxylic acid(1-phenyl-ethyl)-amide]",ToxIC50,[2]; [6],23.59
same,TB MIC,[4],3.1 µg/mL
